Measurements: patent publication US10519152B2, “Compounds and their use in treating cancer” (AstraZeneca AB, priority 2017, dated 2019)

Biological target: T1, Estrogen Receptor (ERα) in MCF-7 human ductal carcinoma breast cell line (Homo sapiens, UniProt P03372)
T1 construct: endogenous in cells; host or cells: MCF-7
T1 sequence (P03372 1-595): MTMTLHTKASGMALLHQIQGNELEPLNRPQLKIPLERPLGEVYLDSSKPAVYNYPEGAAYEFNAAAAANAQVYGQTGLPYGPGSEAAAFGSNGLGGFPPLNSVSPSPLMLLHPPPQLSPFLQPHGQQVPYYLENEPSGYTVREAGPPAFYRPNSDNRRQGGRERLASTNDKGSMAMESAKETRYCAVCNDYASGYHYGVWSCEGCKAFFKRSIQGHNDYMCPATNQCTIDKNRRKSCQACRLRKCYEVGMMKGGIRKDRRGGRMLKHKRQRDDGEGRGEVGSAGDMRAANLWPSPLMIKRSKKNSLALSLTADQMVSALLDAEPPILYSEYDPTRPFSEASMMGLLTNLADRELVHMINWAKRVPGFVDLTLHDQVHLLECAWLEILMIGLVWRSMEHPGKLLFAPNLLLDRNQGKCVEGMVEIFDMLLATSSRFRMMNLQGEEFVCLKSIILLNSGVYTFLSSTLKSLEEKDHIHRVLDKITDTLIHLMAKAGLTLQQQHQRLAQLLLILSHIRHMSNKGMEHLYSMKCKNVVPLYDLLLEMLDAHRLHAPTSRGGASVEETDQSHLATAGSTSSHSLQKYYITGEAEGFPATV
Assay: MCF-7 ER degradation assay (cell based immuno-fluorescence)
Conditions: MCF-7 cells; for ER degradation ≥ 90% at 0.3 μM: ER degradation by fulvestrant at 0.3 μM is defined as 100%; for DC50: 18-22 hours incubation, 50% reduction of ERα expression, single experiment or average of two or more, read-out: MCF-7 ER degradation IC50
Summary of the method: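 MCF-7 human ductal carcinoma breast cells were seeded at 3.75×10^4 cells per mL (40 μL per well) in 384 well plates with phenol red free DMEM containing 2 mM L-Glutamine and 5% (v/v) Charcoal/Dextran treated foetal calf serum. After overnight culture, compounds were acoustically dispensed, incubated 18-22 hours, then cells were formaldehyde-fixed and immunostained for ERα.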

Row | SMILES | ER degradation ≥ 90% at 0.3 μM | DC50 [nM]
1 | Cc1ncsc1-c1ccc([C@@H](CN(C)C)NC(=O)[C@@H]2C[C@@H](O)CN2C(=O)[C@@H](NC(=O)COCCOCCOCCOc2cc(F)c([C@@H]3c4[nH]c5ccccc5c4C[C@@H](C)N3CC(C)(C)F)c(F)c2)C(C)(C)C)cc1 [Example 107, (2S,4R)-1-[(2S)-2-[[2-[2-[2-[2-[3,5-Difluoro-4-[(1R,3R)-2-(2-fluoro-2-methyl-propyl)-3-methyl-1,3,4,9-tetrahydropyrido[3,4-b]indol-1-yl]phenoxy]ethoxy]ethoxy]ethoxy]acetyl]amino]-3,3-dimethyl-butanoyl]-N-[(1S)-2-(dimethylamino)-1-[4-(4-methylthiazol-5-yl)phenyl]ethyl]-4-hydroxy-pyrrolidine-2-carboxamide] | •• | 1
2 | Cc1ncsc1-c1ccc(CNC(=O)[C@@H]2C[C@@H](O)CN2C(=O)[C@@H](NC(=O)CCCCCOCCCCOc2cc(F)c([C@@H]3c4[nH]c5ccccc5c4C[C@@H](C)N3CC(C)(C)F)c(F)c2)C(C)(C)C)cc1 [Example 109, (2S,4R)-1-((S)-2-(6-(4-(3,5-difluoro-4-((1R,3R)-2-(2-fluoro-2-methylpropyl)-3-methyl-2,3,49-tetrahydro-1H-pyrido[3,4-b]indol-1-yl)phenoxy)butoxy)hexanamido)-3,3-dimethylbutanoyl)-4-hydroxy-N-(4-(4-methylthiazol-5-yl)benzyl)pyrrolidine-2-carboxamide] | •• | 1
3 | Cc1ncsc1-c1ccc(CNC(=O)[C@@H]2C[C@@H](O)CN2C(=O)[C@@H](NC(=O)CCCCCCOCCCOc2cc(F)c([C@@H]3c4[nH]c5ccccc5c4C[C@@H](C)N3CC(C)(C)F)c(F)c2)C(C)(C)C)cc1 [Example 110, (2S,4R)-1-((S)-2-(7-(3-(3,5-difluoro-4-((1R,3R)-2-(2-fluoro-2-methylpropyl)-3-methyl-2,3,4,9-tetrahydro-1H-pyrido[3,4-b]indol-1-yl)phenoxy)propoxy)heptanamido)-3,3-dimethylbutanoyl)-4-hydroxy-N-(4-(4-methylthiazol-5-yl)benzyl)pyrrolidine-2-carboxamide] | •• | 1.7
4 | Cc1ncsc1-c1ccc(CNC(=O)[C@@H]2C[C@@H](O)CN2C(=O)[C@@H](NC(=O)CCCCCCCOCCOc2cc(F)c([C@@H]3c4[nH]c5ccccc5c4C[C@@H](C)N3CC(C)(C)F)c(F)c2)C(C)(C)C)cc1 [Example 111, (2S,4R)-1-((S)-2-(8-(2-(3,5-Difluoro-4-((1R,3R)-2-(2-fluoro-2-methylpropyl)-3-methyl-2,3,4,9-tetrahydro-1H-pyrido[3,4-b]indol-1-yl)phenoxy)ethoxy)octanamido)-3,3-dimethylbutanoyl)-4-hydroxy-N-(4-(4-methylthiazol-5-yl)benzyl)pyrrolidine-2-carboxamide] | • | 0.8
5 | Cc1ncsc1-c1ccc(CNC(=O)[C@@H]2C[C@@H](O)CN2C(=O)[C@@H](NC(=O)CCCOCCCCCCOc2cc(F)c([C@@H]3c4[nH]c5ccccc5c4C[C@@H](C)N3CC(C)(C)F)c(F)c2)C(C)(C)C)cc1 [Example 112, (2S,4R)-1-((S)-2-(4-((6-(3,5-difluoro-4-((1R,3R)-2-(2-fluoro-2-methylpropyl)-3-methyl-2,3,4,9-tetrahydro-1H-pyrido[3,4-b]indol-1-yl)phenoxy)hexyl)oxy)butanamido)-3,3-dimethylbutanoyl)-4-hydroxy-N-(4-(4-methylthiazol-5-yl)benzyl)pyrrolidine-2-carboxamide] | •• | 2.2
6 | Cc1ncsc1-c1ccc(CNC(=O)[C@@H]2C[C@@H](O)CN2C(=O)[C@@H](NC(=O)CCCCOCCCCCOc2cc(F)c([C@@H]3c4[nH]c5ccccc5c4C[C@@H](C)N3CC(C)(C)F)c(F)c2)C(C)(C)C)cc1 [Example 113, (2S,4R)-1-((S)-2-(5-((5-(3,5-Difluoro-4-((1R,3R)-2-(2-fluoro-2-methylpropyl)-3-methyl-2,3,4,9-tetrahydro-1H-pyrido[3,4-b]indol-1-yl)phenoxy)pentyl)oxy)pentanamido)-3,3-dimethylbutanoyl)-4-hydroxy-N-(4-(4-methylthiazol-5-yl)benzyl)pyrrolidine-2-carboxamide] | •• | 0.9
7 | Cc1ncsc1-c1ccc([C@H](C)NC(=O)[C@@H]2C[C@@H](O)CN2C(=O)[C@@H](NC(=O)CCOCCCCCCCOc2cc(F)c([C@@H]3c4[nH]c5ccccc5c4C[C@@H](C)N3CC(C)(C)F)c(F)c2)C(C)(C)C)cc1 [Example 114, (2S,4R)-1-((S)-2-(3-((7-(3,5-difluoro-4-((1R,3R)-2-(2-fluoro-2-methylpropyl)-3-methyl-2,3,4,9-tetrahydro-1H-pyrido[3,4-b]indol-1-yl)phenoxy)heptyl)oxy)propanamido)-3,3-dimethylbutanoyl)-4-hydroxy-N—((S)-1-(4-(4-methylthiazol-5-yl)phenyl)ethyl)pyrrolidine-2-carboxamide] | •• | 3.6
8 | Cc1ncsc1-c1ccc(CNC(=O)[C@@H]2C[C@@H](O)CN2C(=O)[C@@H](NC(=O)CCOCCCCCCCOc2cc(F)c([C@@H]3c4[nH]c5ccccc5c4C[C@@H](C)N3CC(C)(C)F)c(F)c2)C(C)(C)C)cc1 [Example 115, (2S,4R)-1-((S)-2-(3-((7-(3,5-difluoro-4-((1R,3R)-2-(2-fluoro-2-methylpropyl)-3-methyl-2,3,4,9-tetrahydro-1H-pyrido[3,4-b]indol-1-yl)phenoxy)heptyl)oxy)propanamido)-3,3-dimethylbutanoyl)-4-hydroxy-N-(4-(4-methylthiazol-5-yl)benzyl)pyrrolidine-2-carboxamide] | •• | 3.4
9 | Cc1ncsc1-c1ccc(CNC(=O)[C@@H]2C[C@@H](O)CN2C(=O)[C@@H](NC(=O)C(F)(F)OCCCCCCOc2cc(F)c([C@@H]3c4[nH]c5ccccc5c4C[C@@H](C)N3CC(C)(C)F)c(F)c2)C(C)(C)C)cc1 [Example 116, (2S,4R)-1-((S)-2-(2-((6-(3,5-Difluoro-4-((1R,3R)-2-(2-fluoro-2-methylpropyl)-3-methyl-2,3,4,9-tetrahydro-1H-pyrido[3,4-b]indol-1-yl)phenoxy)hexyl)oxy)-2,2-difluoroacetamido)-3,3-dimethylbutanoyl)-4-hydroxy-N-(4-(4-methylthiazol-5-yl)benzyl)pyrrolidine-2-carboxamide] | • | 5.3
10 | Cc1ncsc1-c1ccc(CNC(=O)[C@@H]2C[C@@H](O)CN2C(=O)[C@@H](NC(=O)C2(OCCCCCCOc3cc(F)c([C@@H]4c5[nH]c6ccccc6c5C[C@@H](C)N4CC(C)(C)F)c(F)c3)CC2)C(C)(C)C)cc1 [Example 118, (2S,4R)-1-((S)-2-(1-((6-(3,5-difluoro-4-((1R,3R)-2-(2-fluoro-2-methylpropyl)-3-methyl-2,3,4,9-tetrahydro-1H-pyrido[3,4-b]indol-1-yl)phenoxy)hexyl)oxy)cyclopropane-1-carboxamido)-3,3-dimethylbutanoyl)-4-hydroxy-N-(4-(4-methylthiazol-5-yl)benzyl)pyrrolidine-2-carboxamide] | • | 4.7
11 | Cc1ncsc1-c1ccc(CNC(=O)[C@@H]2C[C@@H](O)CN2C(=O)[C@@H](NC(=O)C(F)(F)OCCCOCCCOc2cc(F)c([C@@H]3c4[nH]c5ccccc5c4C[C@@H](C)N3CC(C)(C)F)c(F)c2)C(C)(C)C)cc1 [Example 119, (2S,4R)-1-((S)-2-(2-(3-(3-(3,5-Difluoro-4-((1R,3R)-2-(2-fluoro-2-methylpropyl)-3-methyl-2,3,4,9-tetrahydro-1H-pyrido[3,4-b]indol-1-yl)phenoxy)propoxy)propoxy)-2,2-difluoroacetamido)-3,3-dimethylbutanoyl)-4-hydroxy-N-(4-(4-methylthiazol-5-yl)benzyl)pyrrolidine-2-carboxamide] | • | 1.4
12 | Cc1ncsc1-c1ccc([C@H](C)NC(=O)[C@@H]2C[C@@H](O)CN2C(=O)[C@@H](NC(=O)C(F)(F)OCCCOCCCOc2cc(F)c([C@@H]3c4[nH]c5ccccc5c4C[C@@H](C)N3CC(C)(C)F)c(F)c2)C(C)(C)C)cc1 [Example 120, (2S,4R)-1-((S)-2-(2-(3-(3-(3,5-Difluoro-4-((1R,3R)-2-(2-fluoro-2-methylpropyl)-3-methyl-2,3,4,9-tetrahydro-1H-pyrido[3,4-b]indol-1-yl)phenoxy)propoxy)propoxy)-2,2-difluoroacetamido)-3,3-dimethylbutanoyl)-4-hydroxy-N—((S)-1-(4-(4-methylthiazol-5-yl)phenyl)ethyl)pyrrolidine-2-carboxamide] | •• | 1.6
